In the NIST ThermoML archive (doi:10.1021/acs.jced.7b00227):

Assays:
[1] = Molar enthalpy of transition or fusion; conditions: Crystal; DSC

O=Cc1cccc(O)c1 [3-hydroxybenzaldehyde]
Conditions	vapor or sublimation pressure [kPa]
309.13 K, Crystal, Calculated from knudsen effusion weight loss	8.9e-05
311.29 K, Crystal, Calculated from knudsen effusion weight loss	0.000118
313.21 K, Crystal, Calculated from knudsen effusion weight loss	0.00015
315.13 K, Crystal, Calculated from knudsen effusion weight loss	0.000189
317.29 K, Crystal, Calculated from knudsen effusion weight loss	0.000243
319.2 K, Crystal, Calculated from knudsen effusion weight loss	0.000308
321.13 K, Crystal, Calculated from knudsen effusion weight loss	0.00039
323.29 K, Crystal, Calculated from knudsen effusion weight loss	0.00049
324.86 K, Crystal, Closed cell (Static) method	0.00061
325.23 K, Crystal, Calculated from knudsen effusion weight loss	0.000616
326.85 K, Crystal, Closed cell (Static) method	0.00076
327.14 K, Crystal, Calculated from knudsen effusion weight loss	0.000763
328.83 K, Crystal, Closed cell (Static) method	0.00094
329.29 K, Crystal, Calculated from knudsen effusion weight loss	0.000957
330.84 K, Crystal, Closed cell (Static) method	0.00116
331.22 K, Crystal, Calculated from knudsen effusion weight loss	0.001188
332.78 K, Crystal, Closed cell (Static) method	0.00142
334.76 K, Crystal, Closed cell (Static) method	0.00176
336.76 K, Crystal, Closed cell (Static) method	0.00219
338.72 K, Crystal, Closed cell (Static) method	0.00269
340.73 K, Crystal, Closed cell (Static) method	0.00336
342.63 K, Crystal, Closed cell (Static) method	0.00405
344.71 K, Crystal, Closed cell (Static) method	0.00495
346.64 K, Crystal, Closed cell (Static) method	0.006
348.61 K, Crystal, Closed cell (Static) method	0.00733
350.55 K, Crystal, Closed cell (Static) method	0.00897
352.54 K, Crystal, Closed cell (Static) method	0.01085
354.49 K, Crystal, Closed cell (Static) method	0.01289
356.45 K, Crystal, Closed cell (Static) method	0.01575
358.45 K, Crystal, Closed cell (Static) method	0.01898
360.41 K, Crystal, Closed cell (Static) method	0.02275
362.4 K, Crystal, Closed cell (Static) method	0.02727
364.34 K, Crystal, Closed cell (Static) method	0.03226
366.32 K, Crystal, Closed cell (Static) method	0.03884
368.21 K, Crystal, Closed cell (Static) method	0.04637
368.31 K, Metastable liquid, Closed cell (Static) method	0.05807
370.35 K, Metastable liquid, Closed cell (Static) method	0.06605
372.25 K, Metastable liquid, Closed cell (Static) method	0.07435
374.24 K, Metastable liquid, Closed cell (Static) method	0.08475
376.14 K, Metastable liquid, Closed cell (Static) method	0.09434
378.15 K, Closed cell (Static) method, Liquid	0.1083
380.15 K, Closed cell (Static) method, Liquid	0.1217
382.09 K, Closed cell (Static) method, Liquid	0.1367
384.06 K, Closed cell (Static) method, Liquid	0.1536
386.07 K, Closed cell (Static) method, Liquid	0.1727
388 K, Closed cell (Static) method, Liquid	0.1931
389.95 K, Closed cell (Static) method, Liquid	0.2148
391.96 K, Closed cell (Static) method, Liquid	0.2415
395.88 K, Closed cell (Static) method, Liquid	0.3002
399.75 K, Closed cell (Static) method, Liquid	0.3687
403.71 K, Closed cell (Static) method, Liquid	0.454
405.31 K, Closed cell (Static) method, Liquid	0.49
407.66 K, Closed cell (Static) method, Liquid	0.5539
409.61 K, Closed cell (Static) method, Liquid	0.618
411.6 K, Closed cell (Static) method, Liquid	0.6754
413.56 K, Closed cell (Static) method, Liquid	0.751
415.52 K, Closed cell (Static) method, Liquid	0.814
417.46 K, Closed cell (Static) method, Liquid	0.902
419.41 K, Closed cell (Static) method, Liquid	0.994

Conditions	Normal melting temperature [°C]
Crystal, DTA	104.5

Conditions	Molar enthalpy of transition or fusion [kcal/mol]
[1]	6.12
